Data on 22 compounds can be found in patent US10899753B2, “Inhibiting agents for Bruton's tyrosine kinase” (BIOGEN MA INC., priority 2018, dated 2021).

Molecules are shown by their SMILES.

For assay [1], the target named is T1, BTK (Homo sapiens (Human), UniProt Q06187). As to the kind of experiment: In Vitro BTK Kinase Assay: BTK-POLYGAT-LS ASSAY. It counts as biochemical. The settings on record: fluorescein-labeled polyGAT peptide 100 nM, BTK enzyme 0.25 nM, 30 minutes, TRF. On the procedure:
In Vitro BTK Kinase Assay: BTK-POLYGAT-LS ASSAY
The purpose of the BTK in vitro assay is to determine compound potency against BTK through the measurement of IC50. […] For a typical assay, a […] aliquot of a ATP/peptide master mix (final concentration; ATP […], polyGAT 100 nM) in kinase buffer (10 mM Tris-HCl pH 7.5, 10 mM MgCl2, 200 μM Na3PO4, 5 mM DTT, 0.01% Triton X-100, and 0.2 mg/ml casein) is added to each well. […] The assay is incubated for 30 minutes before being stopped with 28 μL of a 50 mM EDTA solution. […] The plate is covered and incubated for 45 minutes at room temperature. Time resolved fluorescence (TRF) on Molecular Devices M5 (332 nm excitation; 488 nm emission; 518 nm fluorescein emission) is measured.

Assay [2] has as its target T1, BTK. The experiment in a line: In Vitro PD Assay in Human Whole Blood (pBTK assay). The settings on record: human heparinized whole blood, 37° C. for 30 min, total BTK capture and phosphotyrosine detection (ECL). It counts as cell-based. On the procedure: In Vitro PD Assay in Human Whole Blood
Human heparinized venous blood was purchased from Bioreclamation, Inc. or SeraCare Life Sciences and shipped overnight. Whole blood was aliquoted into 96-well plate and “spiked” with serial dilutions of test compound in DMSO or with DMSO without drug. The final concentration of DMSO in all wells was 0.1%. The plate was incubated at 37° C. for 30 min. Lysis buffer containing protease and phosphatase inhibitors was added to the drug-containing samples and one of the DMSO-only samples (+PPi, high control), while lysis buffer containing protease inhibitors was added to the other DMSO-only samples (−PPi, low control). All of the lysed whole blood samples were subjected to the total BTK capture and phosphotyrosine detection method described in US20160311802, incorporated herein by reference.

T1 sequence (Q06187 whole entry): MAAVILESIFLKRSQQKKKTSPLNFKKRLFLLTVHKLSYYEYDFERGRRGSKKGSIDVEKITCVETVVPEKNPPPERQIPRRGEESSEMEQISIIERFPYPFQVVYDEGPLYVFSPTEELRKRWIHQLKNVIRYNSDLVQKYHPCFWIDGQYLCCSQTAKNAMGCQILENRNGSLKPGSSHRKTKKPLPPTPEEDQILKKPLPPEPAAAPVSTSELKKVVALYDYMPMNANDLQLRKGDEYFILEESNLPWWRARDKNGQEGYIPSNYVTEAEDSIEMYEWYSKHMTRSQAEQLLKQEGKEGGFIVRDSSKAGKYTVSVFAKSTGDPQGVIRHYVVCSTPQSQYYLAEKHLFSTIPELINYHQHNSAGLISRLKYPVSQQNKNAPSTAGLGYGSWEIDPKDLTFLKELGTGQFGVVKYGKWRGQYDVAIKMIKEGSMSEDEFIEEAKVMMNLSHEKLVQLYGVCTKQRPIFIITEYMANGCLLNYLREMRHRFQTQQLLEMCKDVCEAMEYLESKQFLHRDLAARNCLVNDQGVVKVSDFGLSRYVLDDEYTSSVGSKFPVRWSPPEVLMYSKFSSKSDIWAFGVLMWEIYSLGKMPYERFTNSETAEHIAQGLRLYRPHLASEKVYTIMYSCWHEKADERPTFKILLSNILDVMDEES

A word on the IC50: it is the concentration at which inhibition is half-maximal. As to `Cc1c(CNC(=O)c2nn(C(C)(C)C)cc2F)ccc(-c2ncnc(Nc3cnn(C)c3)n2)c1F` [Compound 27, 1-(tert-butyl)-4-fluoro-N-(3-fluoro-2-methyl-4-(4-((1-methyl-1H-pyrazol-4-yl)amino)-1,3,5-triazin-2-yl)benzyl)-1H-pyrazole-3-carboxamide], the results for the IC50 at BTK [1] and at BTK [2] were less than 1 nM and 100 to 500 nM, respectively.
Taken in the same sequence, the figures for `Cc1c(CNC(=O)c2nc(C3(CF)CC3)no2)ccc(-c2ncnc(Nc3cnn(C)c3)n2)c1F` [Compound 47, N-(3-fluoro-2-methyl-4-(4-((1-methyl-1H-pyrazol-4-yl)amino)-1,3,5-triazin-2-yl)benzyl)-3-(1-(fluoromethyl)cyclopropyl)-1,2,4-oxadiazole-5-carboxamide] were less than 1 nM and less than 100 nM.
Taken in the same sequence, the figures for `Cc1c(-c2ncnc(Nc3cnn(C)c3)n2)ccc([C@@H](C)NC(=O)c2nc(C(C)(C)C)no2)c1Cl` [Compound 78, (R)-3-(tert-butyl)-N-(1-(2-chloro-3-methyl-4-(4-((1-methyl-1H-pyrazol-4-yl)amino)-1,3,5-triazin-2-yl)phenyl)ethyl)-1,2,4-oxadiazole-5-carboxamide] were 1 to 10 nM and 100 to 500 nM.
Taken in the same sequence, the figures for `Cc1c(CNC(=O)c2noc(C(C)(C)C)n2)ccc(-c2ncnc(Nc3ccn(C)n3)n2)c1F` [Compound 9, 5-(tert-butyl)-N-(3-fluoro-2-methyl-4-(4-((1-methyl-1H-pyrazol-3-yl)amino)-1,3,5-triazin-2-yl)benzyl)-1,2,4-oxadiazole-3-carboxamide] were less than 1 nM and 100 to 500 nM.
Consider `Cc1c([C@@H](C)NC(=O)c2noc(C(C)(C)C)n2)ccc(-c2ncnc(Nc3cnn(C)c3)n2)c1F` [Compound 73, (R)-5-(tert-butyl)-N-(1-(3-fluoro-2-methyl-4-(4-((1-methyl-1H-pyrazol-4-yl)amino)-1,3,5-triazin-2-yl)phenyl)ethyl)-1,2,4-oxadiazole-3-carboxamide], for which the IC50 against BTK [1] is less than 1 nM; against BTK [2], less than 100 nM.
Taken in the same sequence, the figures for `Cc1c(CNC(=O)c2ccn(C(C)(C)C)n2)ccc(-c2ncnc(Nc3cnn(C)c3)n2)c1F` [Compound 106, 1-(tert-butyl)-N-(3-fluoro-2-methyl-4-(4-((1-methyl-1H-pyrazol-4-yl)amino)-1,3,5-triazin-2-yl)benzyl)-1H-pyrazole-3-carboxamide] were less than 1 nM and 500 to 10000 nM.
Turning to `Cn1cc(Nc2ncnc(-c3cc4c(cc3F)[C@H](NC(=O)c3noc(C(C)(C)C)n3)CCCC4)n2)cn1` [Compound 86, (R)-5-(tert-butyl)-N-(3-fluoro-2-(4-((1-methyl-1H-pyrazol-4-yl)amino)-1,3,5-triazin-2-yl)-6,7,8,9-tetrahydro-5H-benzo[7]annulen-5-yl)-1,2,4-oxadiazole-3-carboxamide], the IC50 against BTK [1] is less than 1 nM; against BTK [2], less than 100 nM.
Taken in the same sequence, the figures for `Cn1cc(Nc2ncnc(-c3ccc(CNC(=O)c4nc(C(C)(C)C)no4)c(Cl)c3F)n2)cn1` [Compound 29, 3-(tert-butyl)-N-(2-chloro-3-fluoro-4-(4-((1-methyl-1H-pyrazol-4-yl)amino)-1,3,5-triazin-2-yl)benzyl)-1,2,4-oxadiazole-5-carboxamide] were less than 1 nM and less than 100 nM.
Taken in the same sequence, the figures for `Cc1c(CNC(=O)c2cnn(C(C)(C)C)c2)ccc(-c2ncnc(Nc3cnn(C)c3)n2)c1F` [Compound 36, 1-(tert-butyl)-N-(3-fluoro-2-methyl-4-(4-((1-methyl-1H-pyrazol-4-yl)amino)-1,3,5-triazin-2-yl)benzyl)-1H-pyrazole-4-carboxamide] were less than 1 nM and 100 to 500 nM.
Taken in the same sequence, the figures for `Cn1ccc(Nc2ncnc(-c3ccc(CNC(=O)c4nc(C(C)(C)C)no4)c(C(F)F)c3F)n2)n1` [Compound 66, 3-(tert-butyl)-N-(2-(difluoromethyl)-3-fluoro-4-(4-((1-methyl-1H-pyrazol-3-yl)amino)-1,3,5-triazin-2-yl)benzyl)-1,2,4-oxadiazole-5-carboxamide] were 1 to 10 nM and 500 to 10000 nM.
Regarding `Cc1c(CNC(=O)c2noc(C3(CF)CC3)n2)ccc(-c2ncnc(Nc3cnn(C)c3)n2)c1F` [Compound 50, N-(3-fluoro-2-methyl-4-(4-((1-methyl-1H-pyrazol-4-yl)amino)-1,3,5-triazin-2-yl)benzyl)-5-(1-(fluoromethyl)cyclopropyl)-1,2,4-oxadiazole-3-carboxamide], the IC50 was less than 1 nM against BTK [1] and less than 100 nM against BTK [2].
Taken in the same sequence, the figures for `Cn1ccc(Nc2ncnc(-c3ccc4c(c3)CN(C3COC3)CC[C@H]4NC(=O)c3nc(C(C)(C)C)no3)n2)n1` [Compound 98, (R)-3-(tert-butyl)-N-(8-(4-((1-methyl-1H-pyrazol-3-yl)amino)-1,3,5-triazin-2-yl)-2-(oxetan-3-yl)-2,3,4,5-tetrahydro-1H-benzo[c]azepin-5-yl)-1,2,4-oxadiazole-5-carboxamide] were less than 1 nM and 100 to 500 nM.
Taken in the same sequence, the figures for `C[C@@H](NC(=O)c1noc(C(C)(C)C)n1)c1ccc(-c2ncnc(Nc3cnn(C)c3)n2)c(F)c1Cl` [Compound 69, (R)-5-(tert-butyl)-N-(1-(2-chloro-3-fluoro-4-(4-((1-methyl-1H-pyrazol-4-yl)amino)-1,3,5-triazin-2-yl)phenyl)ethyl)-1,2,4-oxadiazole-3-carboxamide] were less than 1 nM and less than 100 nM.
Taken in the same sequence, the figures for `Cc1cc(-c2ncnc(Nc3ccn(C)n3)n2)ccc1CNC(=O)c1nn(C(C)(C)C)cc1F` [Compound 4, 1-(tert-butyl)-4-fluoro-N-(2-methyl-4-(4-((1-methyl-1H-pyrazol-3-yl)amino)-1,3,5-triazin-2-yl)benzyl)-1H-pyrazole-3-carboxamide] were 1 to 10 nM and more than 10000 nM.
For `Cn1ccc(Nc2ncnc(-c3ccc(CNC(=O)c4noc(C(C)(C)C)n4)c(Cl)c3F)n2)n1` [Compound 21, 5-(tert-butyl)-N-(2-chloro-3-fluoro-4-(4-((1-methyl-1H-pyrazol-3-yl)amino)-1,3,5-triazin-2-yl)benzyl)-1,2,4-oxadiazole-3-carboxamide], the half-maximal inhibitory concentration (IC50) at BTK [1] is less than 1 nM; on BTK [2], 100 to 500 nM.
Taken in the same sequence, the figures for `Cn1ccc(Nc2ncnc(-c3ccc4c(c3)CCCC[C@H]4NC(=O)c3noc(C(C)(C)C)n3)n2)n1` [Compound 23, 5-tert-butyl-N-[(5R)-2-[4-[(1-methylpyrazol-3-yl)amino]-1,3,5-triazin-2-yl]-6,7,8,9-tetrahydro-5H-benzo[7]annulen-5-yl]-1,2,4-oxadiazole-3-carboxamide] were less than 1 nM and 100 to 500 nM.
Taken in the same sequence, the figures for `Cc1cc(-c2ncnc(Nc3cnn(C)c3)n2)ccc1CNC(=O)c1nc(C2(CF)CC2)no1` [Compound 48, 3-(1-(fluoromethyl)cyclopropyl)-N-(2-methyl-4-(4-((1-methyl-1H-pyrazol-4-yl)amino)-1,3,5-triazin-2-yl)benzyl)-1,2,4-oxadiazole-5-carboxamide] were less than 1 nM and 100 to 500 nM.
Taken in the same sequence, the figures for `Cn1ccc(Nc2ncnc(-c3ccc(CNC(=O)c4nc(C(C)(C)C)no4)c(Cl)c3F)n2)n1` [Compound 22, 3-(tert-butyl)-N-(2-chloro-3-fluoro-4-(4-((1-methyl-1H-pyrazol-3-yl)amino)-1,3,5-triazin-2-yl)benzyl)-1,2,4-oxadiazole-5-carboxamide] were less than 1 nM and 500 to 10000 nM.
`Cc1cc(-c2ncnc(Nc3cnn(C)c3)n2)c(F)cc1CNC(=O)c1cc(C(C)(C)C)no1` [Compound 63, 3-(tert-butyl)-N-(5-fluoro-2-methyl-4-(4-((1-methyl-1H-pyrazol-4-yl)amino)-1,3,5-triazin-2-yl)benzyl)isoxazole-5-carboxamide]: the IC50 against BTK [1] was less than 1 nM; against BTK [2], 500 to 10000 nM.
Taken in the same sequence, the figures for `Cn1ccc(Nc2ncnc(-c3ccc(CNC(=O)c4noc(C(C)(C)C)n4)c(Cl)c3)n2)n1` [Compound 5, 5-(tert-butyl)-N-(2-chloro-4-(4-((1-methyl-1H-pyrazol-3-yl)amino)-1,3,5-triazin-2-yl)benzyl)-1,2,4-oxadiazole-3-carboxamide] were 1 to 10 nM and 500 to 10000 nM.
Taken in the same sequence, the figures for `Cn1ccc(Nc2ncnc(-c3ccc4c(c3F)CCCC[C@H]4NC(=O)c3noc(C(C)(C)C)n3)n2)n1` [Compound 111, (R)-5-(tert-butyl)-N-(1-fluoro-2-(4-((1-methyl-1H-pyrazol-3-yl)amino)-1,3,5-triazin-2-yl)-6,7,8,9-tetrahydro-5H-benzo[7]annulen-5-yl)-1,2,4-oxadiazole-3-carboxamide] were less than 1 nM and 100 to 500 nM.
As to `Cc1cc(-c2ncnc(Nc3ccn(C)n3)n2)ccc1CNC(=O)c1cc(C(C)(C)C)no1` [Compound 43, 3-(tert-butyl)-N-(2-methyl-4-(4-((1-methyl-1H-pyrazol-3-yl)amino)-1,3,5-triazin-2-yl)benzyl)isoxazole-5-carboxamide], the IC50 on BTK [1] was in the range of 1 to 10 nM; at BTK [2], 500 to 10000 nM.
